{"source": "patent US4155930A", "about": "“Ureylene phenylene anionic naphthalenesulfonic acids” (American Cyanamid Company, priority 1978, dated 1979)", "system": "shunt pathway", "test": "Test Code 036 (C-Shunt inhibitor), lysis of fragile human erythrocytes in autologous serum, cobra venom factor activated", "format": "biochemical", "design": "key: N=Negative (no activity)", "conditions": "serial two-fold dilution assay; higher well number indicates higher activity; N = negative", "text": "An active inhibitor protects C2 from C1 and C4; (ii) Test Code 035 (C3-C9 inhibitor)--This test determines the ability of the late components of human complement (C3-C9) to lyse EAC 142 in the presence of appropriate dilutions of the test compound. An active inhibitor products EAC 142 from lysis by human C3-C9; (iii) Test Code 036 (C-Shunt inhibitor)--In this test human erythrocytes rendered fragile are lysed in autologous serum via the shunt pathway activated by cobra venom factor in the presence of appropriate dilutions of the test compound. Inhibition of the shunt pathway results in failure of lysis; (iv) Forssman Vasculitis Test--Here, the well known complement dependent lesion, Forssman vasculitis, is produced in guinea pigs by intradermal injection of rabbit anti-Forssman antiserum. The lesion is measured in terms of diameter, edema and hemorrhage and the extent to which a combined index of these is inhibited by prior intraperitoneal injection of the test compound at 200 mg/kg is then reported, unless otherwise stated; (v) Forssman Shock Test--Lethal shock is produced in guinea pigs by an i.v. injection of anti-Forssman antiserum and the harmonic mean death time of treated guinea pigs is compared with that of simultaneous controls; (vi) Complement Level Reduction Test--In this test, the above dosed guinea pigs, or others, are bled for serum and the complement level is determined in undiluted serum by the capillary tube method of U.S. Pat. No. 3,876,376 and compared to undosed control guinea pigs; and (vii) Cap 50 Test--Here, appropriate amounts of the test compound are added to a pool of guinea pig serum in vitro, after which the undiluted serum capillary tube assay referred to above is run. The concentration of compound inhibiting 50% is reported.", "note": "Structures can show the parent of a compound that is named as a salt.", "data": [{"smiles": "Cc1ccc(S(=O)(=O)Nc2ccc(S(=O)(=O)[O-])c3cc(S(=O)(=O)[O-])cc(S(=O)(=O)[O-])c23)cc1NS(=O)(=O)c1cccc(NC(=O)Nc2cccc(S(=O)(=O)Nc3cc(S(=O)(=O)Nc4ccc(S(=O)(=O)[O-])c5cc(S(=O)(=O)[O-])cc(S(=O)(=O)[O-])c45)ccc3C)c2)c1.[Na+].[Na+].[Na+].[Na+].[Na+].[Na+]", "note": "[8,8'-[Ureylenebis[(m-phenylenesulfonylimino)(4-methyl-3,1-phenylenesulfonyl)imino]]di-1,3,5-naphthalenetrisulfonic acid, hexasodium salt]", "values": [{"measurement": "Shunt Inhibition 036* Wells", "value": "N"}]}, {"smiles": "O=C(Nc1cccc(S(=O)(=O)Nc2cccc(S(=O)(=O)Nc3cc(S(=O)(=O)O)cc4cc(S(=O)(=O)O)cc(S(=O)(=O)O)c34)c2)c1)Nc1cccc(S(=O)(=O)Nc2cccc(S(=O)(=O)Nc3cc(S(=O)(=O)O)cc4cc(S(=O)(=O)O)cc(S(=O)(=O)O)c34)c2)c1", "note": "[8,8'-[Ureylenebis[[(1,3-phenylenesulfonylimino)-1,3-phenylenesulfonyl]imino]]di-1,3,6-naphthalenetrisulfonic acid, hexasodium salt]", "values": [{"measurement": "Shunt Inhibition 036* Wells", "value": "+1 Wells"}]}, {"smiles": "Cc1ccc(NC(=O)Nc2ccc(C)c(S(=O)(=O)Nc3ccc(C)c(S(=O)(=O)Nc4cc(S(=O)(=O)[O-])cc5cc(S(=O)(=O)[O-])cc(S(=O)(=O)[O-])c45)c3)c2)cc1S(=O)(=O)Nc1ccc(C)c(S(=O)(=O)Nc2cc(S(=O)(=O)[O-])cc3cc(S(=O)(=O)[O-])cc(S(=O)(=O)[O-])c23)c1.[Na+].[Na+].[Na+].[Na+].[Na+].[Na+]", "note": "[8,8'-[Ureylenebis[[[(6-methyl-3,1-phenylene)sulfonyl]imino]-[[(6-methyl-3,1-phenylene)sulfonyl]imino]]]di-1,3,6-naphthalenetrisulfonic acid, hexasodium salt]", "values": [{"measurement": "Shunt Inhibition 036* Wells", "value": "N"}]}]}
